Test results published in PMC7894426, “Influence of verapamil on the pharmacokinetics of rotundic acid in rats and its potential mechanism” (Pharmaceutical Biology, 2021).
Where two headings read alike, the source gives them in different places.

Experiments:
P-gp [1] = molecular target: P-gp (Homo sapiens, UniProt P08183); experiment: Bidirectional transport across MDCKII-MDR1 cell monolayers (P-gp substrate assessment)
Procedure: MDCKII-Mock and MDCKII-MDR1 cells were given as a gift by Fuji Biomedix Co., Ltd. (Japan) and cultured in DMEM supplemented with 10% FBS and 1% antibiotic (10,000 U/mL penicillin and 10 mg/mL streptomycin). Caco-2 cell line, the human epithelial cell used in this assay, was purchased from the Cell Bank of the Chinese Academy of Sciences (Shanghai, China) and maintained between 30 and 45 passages. It was cultured according to the previous report (Guo et al. [2018]; Xiang et al. [2020]). Briefly, the Caco-2 cells were cultured in DMEM supplemented with 10% FBS, 1% NEAA, and 1% antibiotic (10,000 U/mL penicillin and 10 mg/mL streptomycin). All cells were maintained in a 5% CO2 atmosphere and 90% relative humidity at 37 °C.
For transport studies, the MDCKII-Mock, MDCKII-MDR1, and Caco-2 cells were seeded at a density of 2 × 10^5 cells/mL on Costar Transwell inserts (1.12 cm^2 surface, polycarbonate, 12 mm diameter, 0.4 µm pore size). MDCKII-Mock and MDCKII-MDR1 cells were cultured for 5–7 days in medium, for the first four days, the medium was replaced freshly every two days, and then daily. The Caco-2 cells were cultured for 19–21 days in the medium. For the first 2 weeks, the medium was replaced freshly every two days, and then daily. […] The transepithelial electrical resistance (TEER) of the monolayer cells was measured by Millcell ERS-2 (Millipore, USA), and only the monolayer with TEER exceeding 150 Ω·m^2 (MDCKII-Mock and MDCKII-MDR1 cells) and 400 Ω·m^2 (Caco-2 cells) were used for the transport experiment. The membrane integrity and transport function of MDCKII-Mock, MDCKII-MDR1, and Caco-2 cell monolayers were further verified with Lucifer yellow and Rhodamine-123. The qualified monolayers were used for transport studies.
Before the transport studies, the media in both chambers of the transwell were replaced by warm (37 °C) Hank’s balanced salt solution (HBSS), and then the MDCKII-Mock, MDCKII-MDR1, and Caco-2 cell monolayers were incubated at 37 °C and 5% CO2 for 20 min. […] Our transport studies included absorptive direction transport from the apical (AP) side to the basolateral (BL) side and secretory direction transport from the BL side to the AP side. […] After administration, the transwell plate was placed in a thermostatic oscillator shaking at 60 rpm and 37 °C. At 10, 20, 40 and 60 min, respectively, 50 µL incubating sample aliquot was collected from the receiver chamber and immediately replaced by the same volume of fresh HBSS (37 °C). In addition, the membrane integrity of MDCKII-Mock, MDCKII-MDR1, and Caco-2 cell monolayers were evaluated with Lucifer yellow (30 µM) and TEER value, and the efflux activity of P-gp was validated using a typical P-gp substrate rhodamine-123 (10 µM).
The parameters Papp, RE, and NRE were calculated using the following equation: Papp=(ΔQ/Δt)×[1/(A×C0)]

[2] = Bidirectional transport across MDCKII-Mock cell monolayers; format: in vitro ADME, canine; conditions: dog, MDCK, MDCKII-Mock, 20 min; for efflux ratio at 20 min: read-out: RE (efflux ratio)
Procedure: (§1) The qualified monolayers were used for transport studies. […] Each experiment was carried out in triplicate.

P-gp [3] = experiment: Bidirectional transport across Caco-2 cell monolayer; format: in vitro ADME, human; conditions: human, Caco-2, rhodamine-123 10 µM
Procedure: as §1

[4] = rats; ref Wang et al. [1994]; cited from earlier work
[5] = test system: MDCKII-Mock cell monolayers; experiment: Bidirectional transport across MDCKII-Mock cell monolayers; format: in vitro ADME, canine; conditions: MDCKII-Mock monolayer integrity check, Lucifer yellow 30 µM
Procedure: as §1

Caco-2 cell monolayer = experiment: Bidirectional transport across Caco-2 cell monolayer; format: in vitro ADME, human; conditions: Caco-2 monolayer integrity check, Lucifer yellow 30 µM
Procedure: as §1

[6] = pH 7.4, with verapamil 50 µM, + 50 µM verapamil

Chain of P-gp (Homo sapiens, UniProt P08183) (P08183 whole entry): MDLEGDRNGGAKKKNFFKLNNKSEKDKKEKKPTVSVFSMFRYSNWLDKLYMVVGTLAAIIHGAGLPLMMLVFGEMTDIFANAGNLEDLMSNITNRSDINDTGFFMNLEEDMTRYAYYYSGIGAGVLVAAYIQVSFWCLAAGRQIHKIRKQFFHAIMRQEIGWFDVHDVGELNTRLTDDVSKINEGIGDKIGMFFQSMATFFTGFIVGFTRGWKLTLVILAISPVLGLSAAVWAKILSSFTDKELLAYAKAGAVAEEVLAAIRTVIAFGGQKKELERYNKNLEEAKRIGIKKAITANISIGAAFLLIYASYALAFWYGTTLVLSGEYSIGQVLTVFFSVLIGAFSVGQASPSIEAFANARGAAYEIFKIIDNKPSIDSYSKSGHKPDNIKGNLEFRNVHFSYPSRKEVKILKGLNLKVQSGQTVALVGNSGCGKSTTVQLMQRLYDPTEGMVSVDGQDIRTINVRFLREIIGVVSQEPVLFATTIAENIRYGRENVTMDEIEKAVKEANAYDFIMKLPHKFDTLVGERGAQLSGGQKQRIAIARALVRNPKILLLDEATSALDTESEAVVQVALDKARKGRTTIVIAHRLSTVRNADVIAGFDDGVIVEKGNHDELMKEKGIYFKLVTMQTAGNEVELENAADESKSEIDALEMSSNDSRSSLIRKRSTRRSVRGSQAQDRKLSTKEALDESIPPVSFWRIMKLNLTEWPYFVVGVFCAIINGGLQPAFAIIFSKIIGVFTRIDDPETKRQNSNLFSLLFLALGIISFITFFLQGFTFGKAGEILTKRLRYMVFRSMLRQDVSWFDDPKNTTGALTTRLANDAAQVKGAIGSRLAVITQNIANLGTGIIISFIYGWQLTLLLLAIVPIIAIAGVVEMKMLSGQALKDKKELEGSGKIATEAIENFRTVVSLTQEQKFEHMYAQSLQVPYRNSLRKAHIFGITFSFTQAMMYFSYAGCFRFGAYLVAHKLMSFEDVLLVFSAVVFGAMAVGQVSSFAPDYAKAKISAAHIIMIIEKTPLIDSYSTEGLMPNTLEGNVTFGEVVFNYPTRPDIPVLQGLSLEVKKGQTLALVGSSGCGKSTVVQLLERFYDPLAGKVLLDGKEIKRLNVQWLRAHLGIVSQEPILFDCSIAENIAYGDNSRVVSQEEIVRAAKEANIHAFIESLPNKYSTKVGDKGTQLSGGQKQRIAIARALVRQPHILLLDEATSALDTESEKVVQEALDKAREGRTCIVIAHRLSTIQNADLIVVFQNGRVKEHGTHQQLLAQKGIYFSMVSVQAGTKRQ

COC(=O)c1ccccc1-c1c2ccc(=N)cc-2oc2cc(N)ccc12 [Rhodamine 123, rhodamine-123]
Papp A→B at 20 min (P-gp [1]; dog, MDCK-MDR1, pH 7.4): 1.93 ± 0.535 nm/s
Papp B→A at 20 min (P-gp [1]; dog, MDCK-MDR1, pH 7.4): 17.8 ± 2.93 nm/s
efflux ratio at 20 min (P-gp [1]; dog, MDCK-MDR1, pH 7.4): 9.2
Papp A→B at 20 min [2, 6]: 4.09 ± 0.686 nm/s
Papp B→A at 20 min [2, 6]: 5.38 ± 0.642 nm/s
efflux ratio at 20 min [2, 6]: 1.32
Papp A→B at 20 min ([2]; pH 7.4, without verapamil): 3.78 ± 0.314 nm/s
Papp B→A at 20 min ([2]; pH 7.4, without verapamil): 4.81 ± 0.998 nm/s
efflux ratio at 20 min ([2]; pH 7.4, without verapamil): 1.27
efflux ratio at 10 µM (P-gp [3]; pH 7.4, with verapamil 50 µM, verapamil present (50 µM)): 4.86
efflux ratio at 10 µM (P-gp [3]; pH 7.4, without verapamil): 15.6

CC1(C)[C@@H](O[C@H]2O[C@H](C(=O)O)[C@@H](O)[C@H](O)[C@H]2O[C@@H]2O[C@H](C(=O)O)[C@@H](O)[C@H](O)[C@H]2O)CC[C@]2(C)[C@H]3C(=O)C=C4[C@@H]5C[C@@](C)(C(=O)O)CC[C@]5(C)CC[C@@]4(C)[C@]3(C)CC[C@@H]12 [glycyrrhizin]
bioavailability [4]: 4.0%

Lucifer yellow
Papp(AP→BL) (P-gp [1]; MDCKII-MDR1 monolayer integrity check, Lucifer yellow 30 µM): 0.432 ± 0.0468 × 10^−6 cm/s
Papp(AP→BL) [5]: 0.463 ± 0.0568 × 10^−6 cm/s
Papp(AP→BL) (Caco-2 cell monolayer): 0.268 ± 0.0346 × 10^−6 cm/s
